{"source": "patent US5804410A", "about": "“Nucleic acid sequence encoding trypsin-like enzyme and process for producing the enzyme” (Teijin Limited, priority 1994, dated 1998)", "key": {"trypsin-like enzyme": {"biological_target": "T1, trypsin-like enzyme (Homo sapiens, UniProt O60235)", "T1 construct": "from tissue; host or cells: cough phlegm (sputum) of patients with chronic disease of the respiratory tract", "T1 sequence (O60235 187-418)": "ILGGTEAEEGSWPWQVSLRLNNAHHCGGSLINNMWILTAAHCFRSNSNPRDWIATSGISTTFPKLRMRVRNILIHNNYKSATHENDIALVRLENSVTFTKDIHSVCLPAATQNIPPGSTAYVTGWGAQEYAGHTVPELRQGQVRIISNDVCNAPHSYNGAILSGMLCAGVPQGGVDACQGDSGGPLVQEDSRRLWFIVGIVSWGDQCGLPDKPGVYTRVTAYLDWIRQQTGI", "test": "Substrate specificity, synthetic MCA substrates (assay method of trypsin activity)", "assay_type": "biochemical", "details": "synthetic substrates, pH 8.6"}, "[1]": {"test": "Measurement of optimum pH of trypsin-like enzyme", "assay_type": "biochemical", "details": "at pH 6.0, relative to the enzyme at pH 7.6", "procedure": "50 μl of the solution of the trypsin-like protease obtained in Example 1 was added to 1.5 ml of 0.1M Tris-HCl buffer (pH 8.6) containing 100 μM of a synthetic substrate for trypsin Boc-Phe-Ser-Arg-MCA (MCA=methylcoumarinamide), and the mixture was subjected to incubation at 37° C. for 1 hour. 1 ml of 30% acetic acid was then added, the amount of 7-amino-4-methylcoumarin (AMC) formed was determined by fluorescent assay (fluorescence 440 nm, excitating light 380 nm), and the activity of the enzyme was calculated based thereon. An activity of forming 1 pM of AMC in 1 minute is defined as 1 unit (1 unit=1 pM AMC/min).\nThe following buffers were prepared for ascertaining trypsin activity at various pH values.\nThe activity of the trypsin-like enzyme obtained in Example 1 in each buffer was assayed according to the method described in Example 2, and the results are shown in FIG. 2."}, "fibrinogen": {"system": "fibrinogen", "test": "Influence of trypsin-like enzyme on thrombin-induced coagulation time of fibrinogen", "assay_type": "biochemical", "details": "fibrinogen 2 mg/ml, 37° C., thrombin 2.5 units/ml; in proportion as the added activity unit increases; FIG. 3", "procedure": "Fibrinogen was dissolved in 0.01M Tris-HCl buffer (pH 7.4), 0.01M CaCl2 0.15M NaCl so that its concentration could be 2 mg/ml, the trypsin-like enzyme obtained in Example 1 was added with its activity unit changed, the mixture was heated to 37° C., 0.1 ml of this reaction solution was mixed with 0.1 ml of a thrombin solution (2.5 units/ml), and coagulation time was measured on the mixture. In proportion as the added activity unit of the trypsin-like enzyme increases, coagulation time was prolonged."}, "influenza viruses": {"system": "influenza viruses", "details": "in contrast to trypsin; cited from earlier work"}, "NDV Miyadera strain": {"system": "NDV Miyadera strain", "details": "cited from earlier work"}, "VSV New Jersey strain": {"system": "VSV New Jersey strain", "details": "cited from earlier work"}}}
{"substance": "trypsin-like enzyme: protease isolated from cough phlegm of patients with chronic respiratory tract disease, amino acid sequence [I] (SEQ ID NO:19)", "values": [{"measurement": "chymotrypsin activity, elastase activity, collagenase activity, leucine aminopeptidase activity of the enzyme", "setting": "trypsin-like enzyme", "result": "did not exhibit"}, {"measurement": "Inactivation by pH", "setting": "[1]", "result": "about 80%"}, {"measurement": "coagulation time", "setting": "fibrinogen", "result": "prolonged"}, {"measurement": "action of inactivating influenza viruses", "setting": "influenza viruses", "result": "inactivating"}, {"measurement": "action of inactivating NDV Miyadera strain", "setting": "NDV Miyadera strain", "result": "inactivating"}, {"measurement": "action of inactivating VSV New Jersey strain", "setting": "VSV New Jersey strain", "result": "inactivating"}]}
